# Activity calls are given as the source filed them. The calls are words filed in the database; no cut-off is given here.
# Legend:
# Rattus norvegicus [1] = assay: Neuroleptic activity in Wistar HLA rat assessed as stimulation of methamphetamine-induced stereotyped behavior at 10 mg/kg, ip administered 20 mins before methamphetamine challenge measured every 30 mins for 3 hrs followed by every 1 hr for further 3 hrs; format: functional; settings: route intraperitoneal
# Mus musculus [2] = assay: Neuroleptic activity in po dosed STD-ddy mouse assessed as inhibition of active avoidance; format: functional
# Rattus norvegicus [3] = assay: Neuroleptic activity in Wistar HLA rat assessed as inhibition of methamphetamine-induced stereotyped behavior at 2 mg/kg, ip administered 20 mins before methamphetamine challenge measured every 30 mins for 3 hrs followed by every 1 hr for further 3 hrs; format: functional; design: Activity: scale not given: the % may be the effect or the level left; settings: route intraperitoneal
# Rattus norvegicus [4] = assay: Neuroleptic activity in po dosed Wistar HLA rat assessed as inhibition of intracranial self-stimulation measured for 1 to 24 hrs; format: functional
# Mus musculus [5] = assay: Neuroleptic activity in STD-ddy mouse assessed as inhibition of locomotion at 100 mg/kg, po measured for 3 mins; format: functional; settings: 0.05 h
# Mus musculus [6] = assay: Neuroleptic activity in po dosed STD-ddy mouse assessed as catalepsy measured up to 30 secs; format: functional
# Mus musculus [7] = assay: Neuroleptic activity in STD-ddy mouse assessed as inhibition of locomotion at 10 mg/kg, po measured for 3 mins; format: functional; settings: 0.05 h
# Rattus norvegicus [8] = assay: Neuroleptic activity in Wistar HLA rat assessed as inhibition of methamphetamine-induced stereotyped behavior at 1 mg/kg, ip administered 20 mins before methamphetamine challenge measured every 30 mins for 3 hrs followed by every 1 hr for further 3 hrs; format: functional; design: Activity: scale not given: the % may be the effect or the level left; settings: route intraperitoneal
# Mus musculus [9] = assay: Neuroleptic activity in po dosed STD-ddy mouse assessed as inhibition of locomotion measured for 3 mins; format: functional; settings: 0.05 h
# Rattus norvegicus [10] = assay: Neuroleptic activity in Wistar HLA rat assessed as stimulation of methamphetamine-induced stereotyped behavior at 5 mg/kg, ip administered 20 mins before methamphetamine challenge measured every 30 mins for 3 hrs followed by every 1 hr for further 3 hrs; format: functional; settings: route intraperitoneal
# Mus musculus [11] = assay: Neuroleptic activity in STD-ddy mouse assessed as catalepsy at 100 mg/kg, po measured up to 30 secs; format: functional, organism-based; design: dose 100 mg/kg
# Mus musculus [12] = assay: Neuroleptic activity in STD-ddy mouse assessed as muscle relaxation at 100 mg/kg, po after 20 mins; format: functional, organism-based; design: dose 100 mg/kg
# Rattus norvegicus [13] = assay: Neuroleptic activity in Wistar HLA rat assessed as inhibition of methamphetamine-induced stereotyped behavior at 10 mg/kg, ip administered 20 mins before methamphetamine challenge measured every 30 mins for 3 hrs followed by every 1 hr for further 3 hrs; format: functional; settings: Rattus norvegicus, Wistar HLA, ip, route intraperitoneal
# Rattus norvegicus [14] = assay: Neuroleptic activity in Wistar HLA rat assessed as inhibition of methamphetamine-induced stereotyped behavior at 5 mg/kg, ip administered 20 mins before methamphetamine challenge measured every 30 mins for 3 hrs followed by every 1 hr for further 3 hrs; format: functional; design: Activity: scale not given: the % may be the effect or the level left; settings: route intraperitoneal
# Mus musculus [15] = assay: Neuroleptic activity in po dosed STD-ddy mouse assessed as inhibition of methamphetamine-induced stereotyped behavior administered 100 mins before methamphetamine challenge measured for 20 mins; format: functional
# Rattus norvegicus [16] = assay: Neuroleptic activity in Wistar HLA rat assessed as stimulation of methamphetamine-induced stereotyped behavior at 2 mg/kg, ip administered 20 mins before methamphetamine challenge measured every 30 mins for 3 hrs followed by every 1 hr for further 3 hrs; format: functional; settings: route intraperitoneal
# Rattus norvegicus [17] = assay: Neuroleptic activity in sc dosed Wistar HLA rat assessed as inhibition of apomorphine-induced gnawing administered 1 hr before apomorphine challenge measured 5 to 20 mins; format: functional
# Rattus norvegicus [18] = assay: Neuroleptic activity in ip dosed Wistar HLA rat assessed as inhibition of intracranial self-stimulation measured for 1 to 24 hrs; format: functional
# Rattus norvegicus [19] = assay: Neuroleptic activity in Wistar HLA rat assessed as inhibition of methamphetamine-induced stereotyped behavior at 0.5 mg/kg, ip administered 20 mins before methamphetamine challenge measured every 30 mins for 3 hrs followed by every 1 hr for further 3 hrs; format: functional; design: scale not given: the % may be the effect or the level left; settings: route intraperitoneal
# Rattus norvegicus [20] = assay: Neuroleptic activity in Wistar HLA rat assessed as inhibition of methamphetamine-induced stereotyped behavior at 0.1 mg/kg, ip administered 20 mins before methamphetamine challenge measured every 30 mins for 3 hrs followed by every 1 hr for further 3 hrs; format: functional; design: scale not given: the % may be the effect or the level left; settings: route intraperitoneal
# Rattus norvegicus [21] = assay: Neuroleptic activity in Wistar HLA rat assessed as inhibition of methamphetamine-induced stereotyped behavior at 0.2 mg/kg, ip administered 20 mins before methamphetamine challenge measured every 30 mins for 3 hrs followed by every 1 hr for further 3 hrs; format: functional; design: scale not given: the % may be the effect or the level left; settings: route intraperitoneal
# [22] = Rattus norvegicus, Wistar HLA, ip
Compound,ED50 (Mus musculus [2]),ED50 (Rattus norvegicus [4]),inhibition in vivo at 100 mg/kg (Mus musculus [5]),ED50 (Mus musculus [6]),ED50 (Mus musculus [9]),Activity (Mus musculus [11]),Activity (Mus musculus [12]),other results
Cc1ccc2c(c1)[C@H]1CN(CCCC(=O)c3ccc(F)cc3)CC[C@H]1N2C.Cl (relative stereo),20.1 mg/kg,30 mg/kg,95.8%,40.3 mg/kg,10.2 mg/kg,Active,,Activity (Rattus norvegicus [1]): 50%; Activity (Rattus norvegicus [3]): 0%; inhibition in vivo at 10 mg/kg (Mus musculus [7]): 55.8%; Activity (Rattus norvegicus [8]): 0%; Activity (Rattus norvegicus [10]): 50%
CCN1c2ccc(C)cc2[C@H]2CN(CCCC(=O)c3ccc(F)cc3)CC[C@H]21.Cl (relative stereo),,,92.9%,,,Active,Active,Activity (Rattus norvegicus [1]): >75%; Activity (Rattus norvegicus [3]): 0%; inhibition in vivo at 10 mg/kg (Mus musculus [7]): 34%; Activity (Rattus norvegicus [8]): 0%; Activity (Rattus norvegicus [10]): >75%
CC(=O)N1c2ccc(C)cc2[C@H]2CN(CCCC(=O)c3ccc(F)cc3)CC[C@H]21 (relative stereo),,,21.7%,,,inactive,inactive,
Fc1ccc2c(c1)[C@H]1CN(Cc3ccccc3)CC[C@@H]1N2 (relative stereo),,,76.1%,,,inactive,inactive,
Cc1ccc2c(c1)[C@H]1CN(Cc3ccccc3)CC[C@@H]1N2 (relative stereo),,,17.9%,,,,inactive,
Cc1ccc2c(c1)[C@H]1CN(C)CC[C@@H]1N2 (relative stereo),,,79.7%,,,inactive,inactive,
Cc1ccc2c(c1)[C@H]1CN(CCO)CC[C@@H]1N2 (relative stereo),,,-5.6%,,,inactive,inactive,
CC(=O)CCN1CC[C@@H]2Nc3ccc(C)cc3[C@H]2C1 (relative stereo),,,-15.5%,,,,inactive,
Cl.O=C(CCCN1CC[C@@H]2Nc3ccc(F)cc3[C@H]2C1)c1ccc(F)cc1 (relative stereo),5.19 mg/kg,4.54 mg/kg,92.2%,8.08 mg/kg,7.12 mg/kg,,,
Cc1ccc2c(c1)[C@H]1CN(CCCC(=O)c3ccc(F)cc3)CC[C@@H]1N2.Cl (relative stereo),9.73 mg/kg,6.28 mg/kg,86.5%,7.18 mg/kg,9.73 mg/kg,,,inhibition in vivo at 10 mg/kg (Rattus norvegicus [13]): > 75%; inhibition in vivo at 2 mg/kg (Rattus norvegicus [3]; [22]): 50%; inhibition in vivo at 5 mg/kg (Rattus norvegicus [14]; [22]): > 75%; Activity (Rattus norvegicus [8]): 25%
CN1c2ccc(F)cc2[C@H]2CN(CCCC(=O)c3ccc(F)cc3)CC[C@@H]21.O=C(O)/C=C\C(=O)O (relative stereo),4.58 mg/kg,7.37 mg/kg,92.7%,30.7 mg/kg,12.8 mg/kg,,,
Cc1ccc2c(c1)[C@H]1CN(CCCC(=O)c3ccc(F)cc3)CC[C@@H]1N2C.O=C(O)/C=C\C(=O)O (relative stereo),11.5 mg/kg,8.44 mg/kg,97.4%,55.9 mg/kg,14.5 mg/kg,Active,,
Cc1ccc2c(c1)[C@H]1CN(C)CC[C@H]1N2 (relative stereo) [STOBADINE],,> 100 mg/kg,37.6%,> 150 mg/kg,150 mg/kg,inactive,inactive,ED50 (Mus musculus [15]): > 100 mg/kg; Activity (Rattus norvegicus [1]): >75%; Activity (Rattus norvegicus [16]): 25%; Activity (Rattus norvegicus [8]): 0%; ED50 (Rattus norvegicus [17]): > 100 mg/kg; Activity (Rattus norvegicus [10]): 50%
CN(C)CCCN1c2ccccc2Sc2ccc(Cl)cc21 [CHLORPROMAZINE],5.59 mg/kg,,97.4%,9.97 mg/kg,7.42 mg/kg,Active,Active,ED50 (Mus musculus [15]): 13.3 mg/kg; inhibition in vivo at 10 mg/kg (Rattus norvegicus [13]): > 75%; ED50 (Rattus norvegicus [18]): 2.1 mg/kg; Activity (Rattus norvegicus [3]): 0%; Activity (Rattus norvegicus [14]): 50%; inhibition in vivo at 10 mg/kg (Mus musculus [7]): 67.6%; ED50 (Rattus norvegicus [17]): 3.25 mg/kg
O=C(CCCN1CCC(O)(c2ccc(Cl)cc2)CC1)c1ccc(F)cc1 [HALOPERIDOL],,,,,,,,Activity (Rattus norvegicus [19]): >75%; Activity (Rattus norvegicus [20]): 0%; Activity (Rattus norvegicus [21]): 25%; inhibition in vivo at 1 mg/kg (Rattus norvegicus [8]; [22]): > 75%
